# Experimental data taken from patent US10233146B2, “Acetylenic cyanoenones as therapeutics for inflammation and carcinogenesis” (THE RESEARCH FOUNDATION FOR THE STATE UNIVERSITY OF NEW YORK, priority 2015, dated 2019).
# “And” between values parts separate entries of the source, which are not always exact repeats. Identical values can stand only once. Like-named read-outs stand apart in the source and are kept apart here.
# How the values were obtained:
# [1] = system: NQO1; experiment: Induction of NQO1 in Hepa1c1c7 murine hepatoma cells; format: cell-based; conditions: for EC (2-fold NQO1 activity): Hepa1c1c7 cells, 48 h treatment, read-out: NQO1 CD (concentration required to double the specific enzyme activity of NQO1); for magnitude of NQO1 induction at higher concentrations: FIG. 3, concentrations higher than the CD values
# Source text: In this assay, the concentration required to double (CD value) the specific enzyme activity of NQO1 is used to quantify inducer potency. […] Dinkova-KOstova, A. T. et al. 2012). […] These compounds may be more robust inducers than monocyclic compounds. [table]
# [2] = system: iNOS
# [3] = UV study of Michael adduct formation with DTT; format: physicochemical; conditions: for A (absorbance) With DTT (1 equiv) / λmax With DTT (1 equiv) / A (absorbance) With DTT (10 equiv) / λmax With DTT (10 equiv): 0.1 mM compound, phosphate buffer saline-1% ethanol (pH 7.4), rt; for A (absorbance) With DTT (1 equiv) / λmax With DTT (1 equiv): 0.1 mM DTT; for A (absorbance) With DTT (10 equiv) / λmax With DTT (10 equiv): 1 mM DTT; for K (equilibrium constant): 0.1 mM of compound with 0.1 mM of DTT
# Experimental: Calculation of Approximate Equilibrium Constant (K)
# The concentrations of 3, with initial concentration of 0.1 mM, and DTT, with initial concentration of 0.1 mM, in the phosphate buffer are calculated to be 0.0855 mM as follows: (1) The absorbance (A) is 0.956 at 0.1 mM concentration of 3 in deionized water. (2) The A of 3 is 0.817 in the phosphate buffer. (3) The concentrations of 3 and DTT in the buffer are calculated to be 0.0855 mM based on (1) and (2). From these concentrations, the approximate K is calculated as follows: K=[Adduct]/[3]×[DTT]=0.0145×10^−3/[…]=2.0×10^3 (Liters/mol).
# Unfortunately, since the λmax of 4-8 was not observed due to the overlapping, we can't calculate the concentrations of the adducts of 4-8 by the same method as for 3. However, since we can speculate that the ε of the adducts of 4-8 is almost similar to that of the adduct of 2, we can calculate the concentrations of the adducts of 4-8 based on the A (0.227 at 0.0145 mM) of the adduct of […] and the A of the adducts of 4-8. For example, the concentration of the adduct of 5 is 0.0145×0.369 (A of the adduct of 5)/0.227=0.0235 (mM). Therefore, the concentrations of 5 and DTT are 0.0765 (mM/each). Thus, K of 5=0.0235×10^−3/0.0765×0.0765×10^−6=4.0×10^3 (Liters/mol). The K of 4 and 6-8 are also calculated using the A (0.227 at 0.0145 mM) of the adduct of 3 and the A of the adducts of 4 and 6-8, respectively.
# Chemical reactivity of monocyclic, bicyclic, and tricyclic compounds 4-15 as Michael acceptors was evaluated using UV spectroscopy.
# Michael reaction between ethynylcyanodienones with DTT give adducts IV (Scheme 11). Since adducts IV have different UV absorption spectra (λmax 330-380 nm) from those of the corresponding ethynylcyanodienones (λmax 230-320 nm), UV spectroscopy can clarify whether or not the Michael adducts are produced.^6
# (§1) 1. UV Studies on Monocyclic and Bicyclic Compounds 4-9 with DTT Compounds 5-8 with DTT gave similar UV spectra to those of 3 (Taylor, S. K. et al. 1988). Compounds 5-8 have local maximum absorptions at 332-338 nm upon the addition of DTT (1 and 10 equiv) under dilute (0.1 mM of the compounds) and neutral aqueous conditions (pH 7.4 phosphate buffered saline-1% ethanol containing 1 mM KH2PO4, 5.6 mM Na2HPO4, and 154 mM NaCl) (Table 1 and FIG. 2). Also, these compounds react with a chloride anion (a much weaker nucleophile than a sulfhydryl group of DTT), which is contained in the buffer solution, to give Michael adducts whose local maximum absorptions are observed at 320-326 nm.
# We have calculated approximate equilibrium constants (K) of these Michael reactions in the solutions of 5-8 with DTT (each initial concentration, 0.1 mM. See the calculation of the equilibrium constants in the Supporting Information). The values of K are approximately 1.0-4.2×10^3 (L/mol), implying that these additions are very strongly favored.
# Tricyclic compounds 10-15 react with DTT to give the adducts whose local maximum absorptions are observed at 374-383 nm range (Table 1 and FIG. 2). […] Among phenanthrene derivatives, substitutents at C5 decrease the reactivity.
# [4] = UV study of Michael adduct formation with chloride anion of the buffer (without DTT); format: physicochemical; conditions: 0.1 mM compound, phosphate buffer saline-1% ethanol (pH 7.4)
# Experimental: as §1, with “nm. […]” for “nm.”
SMILES,EC (2-fold NQO1 activity) [1],IC50 [2],A (absorbance) With DTT (1 equiv) [3],λmax With DTT (1 equiv) [3],A (absorbance) With DTT (10 equiv) [3],λmax With DTT (10 equiv) [3],K (equilibrium constant) [3],approximate equilibrium constant K of Michael reaction with DTT ([3]; each initial concentration 0.1 mM),A (absorbance) Without DTT (With Cl^—) [4],λmax Without DTT (With Cl^—) [4],"EC (2-fold NQO1 activity) ([1]; Mus musculus, Hepa-1c1c7)",melting point,"approximate equilibrium constant K (calculation) ([3]; initial 0.1 mM compound and 0.1 mM DTT, phosphate buffer)",magnitude of NQO1 induction at higher concentrations [1]
"CC1(C)CC[C@]2(C(=O)O)CC[C@]3(C)[C@H](C(=O)C=C4[C@@]5(C)C=C(C#N)C(=O)C(C)(C)[C@@H]5CC[C@]43C)[C@@H]2C1 [CDDO, reference compound]",0.0023 µM,23 nM,,,,,,,,,,,,
"C#CC1(C#C)C=CC(=O)C(C#N)=C1 [Compound 4, 3,3-Diethynyl-6-oxocyclohexa-1,4-dienecarbonitrile]",,210 nM,0.614,330 nm,0.510 and 0.439,333 nm and 250 nm,10600 L/mol,~10600 L/mol,0.635,328 nm,0.18 µM,110 to 111 °C,,
"C#CC1(C=C)C=CC(=O)C(C#N)=C1 (stereo not drawn) [Compound 5, 3-Ethynyl-6-oxo-3-vinylcyclohexa-1,4-dienecarbonitrile]",,16 nM,0.369,335 nm,0.481,338 nm,4000 L/mol,,0.197,326 nm,0.02 µM,76 to 77 °C,4000 L/mol,
"C#CC1(CC)C=CC(=O)C(C#N)=C1 (stereo not drawn) [Compound 6, 3-Ethyl-3-ethynyl-6-oxocyclohexa-1,4-dienecarbonitrile]",,,0.135,332 nm,0.353,335 nm,1000 L/mol,,0.036,320 nm,0.042 µM,73 to 75 °C,,
"C#CC12C=C(C#N)C(=O)C=C1CCC2 (stereo not drawn) [Compound 7, 3a-Ethynyl-6-oxo-2,3,3a,6-tetrahydro-1H-indene-5-carbonitrile]",,160 nM,0.281,333 nm,0.355,337 nm,2700 L/mol,,0.151,324 nm,0.056 µM,107 to 108 °C,,induce NQO1 more effectively than monocyclic compounds 3-6
"C#CC12C=C(C#N)C(=O)C=C1C(C)(C)CC2 (stereo not drawn) [Compound 8, 3a-Ethynyl-1,1-dimethyl-6-oxo-2,3,3a,6-tetrahydro-1H-indene-5-carbonitrile]",,200 nM,0.376,333 nm,0.472,337 nm,4200 L/mol,,0.279,324 nm,0.1 µM,,,
"C#CC1(C)C=C(C#N)C(=O)c2ccccc21 (stereo not drawn) [Compound 9, 4-Ethynyl-4-methyl-1-oxo-1,4-dihydronaphthalene-2-carbonitrile]",,,0.848,331 nm,0.872,333 nm,,,0.831,321 nm,0.22 µM,,,
"C#CC12C=C(C#N)C(=O)C=C1c1ccccc1CC2 (stereo not drawn) [Compound 10, 10a-Ethynyl-3-oxo-3,9,10,10a-tetrahydrophenanthrene-2-carbonitrile]",,,shoulder,380 nm,0.723,382 nm,,,,,0.15 µM,209.5 to 211 °C,,induce NQO1 more effectively than monocyclic compounds 3-6
"C#CC12C=C(C#N)C(=O)C=C1c1c(Cl)cccc1CC2 (stereo not drawn) [Compound 11, 5-Chloro-10a-ethynyl-3-oxo-3,9,10,10a-tetrahydrophenanthrene-2-carbonitrile]",,,shoulder,380 nm,0.262,380 nm,,,,,0.9 µM,> 230 °C,,induce NQO1 more effectively than monocyclic compounds 3-6
"C#CC12C=C(C#N)C(=O)C=C1c1c(Br)cccc1CC2 (stereo not drawn) [Compound 12, 5-Bromo-10a-ethynyl-3-oxo-3,9,10,10a-tetrahydrophenanthrene-2-carbonitrile]",,650 nM,,,,,,,,,1.3 µM,202 to 205 °C,,
"C#CC12C=C(C#N)C(=O)C=C1c1c(C)cccc1CC2 (stereo not drawn) [Compound 13, 10a-Ethynyl-5-methyl-3-oxo-3,9,10,10a-tetrahydrophenanthrene-2-carbonitrile]",,940 nM,,,0.279,374 nm,,,,,1.8 µM,195.5 to 197 °C,,
"C[S+]([O-])CCCCN=C=S (stereo not drawn) [Sulforaphane, reference compound]",,400 nM,,,,,,,,,0.2 µM,,,
